Experiments:
[1] = parameters: method as in PMID 29355409; details: 0.12% CHX daily for a week, repeated every month; in 18 months; cited from earlier work
[2] = system: Human gingival epithelial cells (HGE); experiment: In vitro cytotoxicity assay (CCK-8); format: cell-based; details: 24 h exposure
Protocol: (§1) The cytotoxicity of II-6s was evaluated by the Cell Counting Kit-8 (CCK-8; Dojindo, Kumamoto, Japan) assay as described by Park et al.. Human gingival epithelial cells (HGE), human oral keratinocytes (HOK) and macrophages RAW264.7 (RAW264.7) were provided by the State Key Laboratory of Oral Diseases, Sichuan University, China. HGE, HOK and RAW264.7 were grown in Dulbecco’s modified Eagle’s medium (DMEM; GibcoTM, Invitrogen, Carlsbad, CA, USA) supplemented with 10% fetal bovine serum (FBS; Invitrogen) and 1% penicillin–streptomycin solution (Invitrogen) and cultured at 37°C in a humidified atmosphere containing 5% CO2. All cells were inoculated into 96 well plates at a density of 1 × 10^4 cells per well for 24 h and then treated with II-6s (0.98 to 500 μg/ml) for 5 min or 24 h. The positive control was treated with CHX (0.98 to 500 μg/ml) at the same time. After treatment, the wells were washed with sterile PBS and fresh medium was added. 10 μl of CCK-8 solution (10 μl) was added to each well and incubated for 1.5 h. The absorbance of each well was measured at the wavelength of 450 nm against a blank which contained medium only. Cell viability was calculated according to the following formula: percent viability = (A450 of treated group − A450 of blank control)/(A450 of negative control − A450 of blank control) × 100%. The experiment was conducted in triplicates and repeated three times.

[3] = system: human oral keratinocytes (HOK); experiment: In vitro cytotoxicity assay (CCK-8); format: cell-based; details: 24 h exposure
Protocol: as §1

[4] = In vitro cytotoxicity assay (CCK-8); format: cell-based, human; details: human, 5 min exposure
Protocol: as §1

S. mutans [5] = experiment: Dose-dependent killing assay; format: cell-based, Streptococcus mutans UA159; details: equivalent doses, 5-min exposure
Protocol: (§2) The time- and dose-dependent killing capacities of II-6s were assessed by the method modified from that of Koo et al.. S. mutans was diluted to 1 × 10^7 CFU/ml in BHI broth containing test compounds or not, and incubated in 5% CO2 at 37°C. For the time-kill curve, the final concentration of II-6s and CHX was equivalent to their MBC. At 0, 0.5, 1, 2, 4, 6, 8 and 10 h, samples were serially diluted in PBS and 50 μl aliquots were spread onto BHI agar medium. For the dose-dependent killing curve, S. mutans was treated with different doses of II-6s and CHX for 5 min before diluted and spread. All plates were incubated anaerobically for 48 h followed by enumeration of CFU. The time-kill or dose-dependent killing curves were constructed by plotting the log10(CFU/ml) versus the incubation time or concentration. The experiment was performed in triplicates and repeated at least three times.

S. mutans [6] = experiment: Time-kill assay; format: cell-based, Streptococcus mutans UA159; details: at MBC
Protocol: as §2

[7] = system: methicillin-resistant Staphylococcus aureus (MRSA); parameters: method as in PMID 30940910; details: cited from earlier work

Row | Compound | patients at high caries risk reduced to moderate or low risk [1] | IC50 (cytotoxicity), compared with CHX [2] | IC50 (cytotoxicity), compared with CHX [3] | IC50 at 5 min ([4]; human gingival epithelial cells (HGE)) | IC50 at 5 min ([4]; human oral keratinocytes (HOK)) | bactericidal activity in dose-dependent killing assay (S. mutans [5]) | treatment time after which no visible colonies were observed on the plate (S. mutans [6]) | reduction of S. mutans (S. mutans [6]; within 2 h) | antimicrobial activity against MRSA [7]
1 | [H]/N=C(\N/C(=N/[H])NCCCCCCNC(=N)NC(=N)Nc1ccc(Cl)cc1)Nc1ccc(Cl)cc1 [CHX, Chlorhexidine digluconate, reference compound] | approximately 70% |  |  |  |  |  |  |  | 
2 | CC(C)(Cc1ccc2ccccc2c1)NC[C@H](O)CNc1cc(C(F)(F)F)cc(C(F)(F)F)c1 [II-6s, (S)-1-((3,5-bis(trifluoromethyl)phenyl)amino)-3-((2-methyl-1-(naphthalen-2-yl)propan-2-yl)amino)propan-2-ol] |  | higher than that of CHX | higher than that of CHX | > 125 mg/L | > 125 mg/L | better bactericidal activities than CHX | 8 h | approximately 3 log10 CFU/ml | decent antimicrobial activity
